{"source": "EPA's ToxValDB 9.5", "key": {"[1]": {"test_system": "Mus musculus"}, "[2]": {"test_system": "Pontoscolex corethrurus", "settings": "acute; mortality"}, "[3]": {"test_system": "Apis mellifera", "settings": "acute, mortality"}, "[4]": {"test_system": "Oryctolagus sp."}, "[5]": {"test_system": "Colinus virginianus"}, "[6]": {"test_system": "Daphnia magna", "settings": "acute, mortality"}, "[7]": {"test_system": "Oncorhynchus mykiss", "settings": "acute, mortality"}, "[8]": {"test_system": "Anas platyrhynchos", "settings": "short-term; oral; feed; mortality"}, "[9]": {"test_system": "Canidae", "settings": "oral, Dog Other"}, "[10]": {"test_system": "Rattus norvegicus"}, "[11]": {"test_system": "Gallus gallus", "settings": "no effects"}, "[12]": {"test_system": "Sus scrofa", "settings": "Not specified, no effects"}}}
{"smiles": "O=S(=O)([O-])c1cc(S(=O)(=O)[O-])c2c(N=Nc3ccc(S(=O)(=O)[O-])c4ccccc34)c(O)ccc2c1.[Na+].[Na+].[Na+]", "note": "[C.I. Acid Red 18, trisodium salt]", "values": [{"measurement": "NOAEL", "setting": "[1]; chronic, duration: 82 weeks, oral, diet, M/F, neurology", "value": 70, "unit": "mg/kg-day"}]}
{"smiles": "CCCCC(CC)COC(=O)C1CCC(C(=O)OCC(CC)CCCC)CC1", "note": "(stereo not drawn) [Bis(2-ethylhexyl) cyclohexane-1,4-dicarboxylate]", "values": [{"measurement": "NOAEL", "setting": "subchronic, duration: 90 days, oral, no effects", "value": 1000, "unit": "mg/kg-day"}]}
{"smiles": "CCc1nccnc1OC", "note": "[Pyrazine, 2-ethyl-3-methoxy-]", "values": [{"measurement": "LC50", "setting": "[2]", "value": 243, "unit": "mg/kg"}]}
{"smiles": "COc1cc(CCC(C)=O)ccc1O", "note": "[4-(4-Hydroxy-3-methoxyphenyl)-2-butanone]", "values": [{"measurement": "LC50", "setting": "[2]", "value": 346, "unit": "mg/kg"}]}
{"smiles": "CC(c1ccc(C(F)(F)F)nc1)S(C)(=O)=NC#N", "note": "(stereo not drawn) [Sulfoxaflor]", "values": [{"measurement": "LD50", "setting": "[3]; duration: 48 hours, oral, unspecified", "value": 0.146, "unit": "µg/piece"}, {"measurement": "LD50", "setting": "[3]; duration: 72 hours, dermal", "value": 0.397, "unit": "µg/piece"}]}
{"smiles": "COC(=O)[C@H](Cc1ccccc1)NC(=O)[C@H](CC(=O)O)NCCCc1ccc(OC)c(O)c1.O", "values": [{"measurement": "NOAEL", "setting": "[4]; reproduction developmental, duration: 22 days, oral, gavage, F, New Zealand, clinical signs", "value": 500, "unit": "mg/kg-day"}]}
{"smiles": "Nc1ccc(Cl)c(Cl)c1", "note": "[3,4-Dichloroaniline]", "values": [{"measurement": "LD50", "setting": "[5]; acute, oral, mortality", "value": 99.1, "unit": "mg/kg-day"}]}
{"smiles": "O=C(O)C(O)Cn1cncn1", "note": "(stereo not drawn) [Triazole lactic acid]", "values": [{"measurement": "NOAEL", "setting": "[4]; developmental, development", "value": 30, "unit": "mg/kg-day"}]}
{"smiles": "CC(O)(Cn1cncn1)c1ccc(Oc2ccc(Cl)cc2)cc1C(F)(F)F", "note": "(stereo not drawn) [Mefentrifluconazole]", "values": [{"measurement": "NOAEL", "setting": "[1]; chronic, duration: 18 months, organ weight", "value": 3.5, "unit": "mg/kg-day"}, {"measurement": "NOAEL", "setting": "[1]; subchronic, duration: 90 days, organ weight", "value": 2, "unit": "mg/kg-day"}, {"measurement": "NOAEL", "setting": "[4]; developmental, development", "value": 15, "unit": "mg/kg-day"}]}
{"smiles": "CCC=C(C)C(=O)O", "note": "[2-Methylpent-2-en-1-oic acid]", "values": [{"measurement": "LC50", "setting": "[2]", "value": 2040, "unit": "mg/kg"}]}
{"smiles": "CC(=O)c1cc(C)sc1C", "note": "[3-Acetyl-2,5-dimethylthiophene]", "values": [{"measurement": "LC50", "setting": "[6]", "value": 6.95, "unit": "mg/L"}]}
{"smiles": "O=C(O)c1cn[nH]c1C(F)F", "note": "[1H-3-Difluoromethylpyrazole-4-carboxylic acid]", "values": [{"measurement": "NOAEL", "setting": "[4]; reproduction developmental, body weight", "value": 300, "unit": "mg/kg-day"}]}
{"smiles": "CCN(CC)c1ccc(C(=C2C=CC(=[N+](CC)CC)C=C2)c2cc(O)c(S(=O)(=O)[O-])cc2S(=O)(=O)[O-])cc1.CCN(CC)c1ccc(C(=C2C=CC(=[N+](CC)CC)C=C2)c2cc(O)c(S(=O)(=O)[O-])cc2S(=O)(=O)[O-])cc1.[Ca+2]", "note": "[Acid Blue 3]", "values": [{"measurement": "NOAEL", "setting": "[1]; chronic, duration: 21 months, M, hematological", "value": 500, "unit": "mg/kg-day"}, {"measurement": "NOAEL", "setting": "[1]; chronic, duration: 23 months, F, hematological", "value": 500, "unit": "mg/kg-day"}]}
{"smiles": "c1ccc(Nc2ccccc2)cc1", "note": "[Diphenylamine]", "values": [{"measurement": "LC50", "setting": "[7]; duration: 96 hours", "value": 0.0022, "unit": "mg/mL"}, {"measurement": "NOEC", "setting": "[7]; duration: 96 hours", "value": 0.71, "unit": "mg/L"}, {"measurement": "LD50", "setting": "[5]; acute, oral, mortality", "value": "> 2250", "unit": "mg/kg-day"}, {"measurement": "LC50", "setting": "[8]", "value": 2290, "unit": "mg/kg-day"}, {"measurement": "NOEC", "setting": "[6]; duration: 48 hours", "value": "< 0.38", "unit": "mg/L"}, {"measurement": "NOAEL", "setting": "[9]; chronic, duration: 1 years, clinical chemistry", "value": 10, "unit": "mg/kg-day"}, {"measurement": "NOAEL", "setting": "[9]; chronic, duration: 1 years, hematological", "value": 10, "unit": "mg/kg-day"}, {"measurement": "NOAEL", "setting": "[9]; subchronic, duration: 90 days, clinical chemistry", "value": 10, "unit": "mg/kg-day"}, {"measurement": "NOAEL", "setting": "[9]; subchronic, duration: 90 days, hematological", "value": 10, "unit": "mg/kg-day"}, {"measurement": "NOAEL", "setting": "[10]; chronic, duration: 2 years, hematological", "value": 7.5, "unit": "mg/kg-day"}, {"measurement": "NOAEL", "setting": "[10]; subchronic, duration: 90 days, oral, clinical chemistry", "value": 9.6, "unit": "mg/kg-day"}, {"measurement": "NOAEL", "setting": "[10]; subchronic, duration: 90 days, oral, hematological", "value": 9.6, "unit": "mg/kg-day"}]}
{"smiles": "CCCC(=O)C(CC)Sc1ccoc1C", "note": "(stereo not drawn) [3-(2-Methyl-3-furylthio)-4-heptanone]", "values": [{"measurement": "NOAEL", "setting": "subchronic, duration: 90 days", "value": 3.76, "unit": "mg/kg-day"}, {"measurement": "NOAEL", "setting": "[10]; subchronic, duration: 90 days, oral, diet", "value": 3.76, "unit": "mg/kg-day"}, {"measurement": "NOAEL", "setting": "[10]; subchronic, duration: 90 days, oral, diet, M/F, no effects", "value": 3.76, "unit": "mg/kg-day"}]}
{"smiles": "CCCCCCCCC(=O)NCc1ccc(O)c(OC)c1", "note": "[N-Vanillylnonanamide]", "values": [{"measurement": "NOEL", "setting": "repeat dose other", "value": 8.4, "unit": "mg/kg-day"}, {"measurement": "NOAEL", "setting": "[10]; subchronic, duration: 90 days, oral, M/F", "value": 8.4, "unit": "mg/kg-day"}]}
{"smiles": "CC(C)O", "note": "[Isopropanol]", "values": [{"measurement": "NOAEL", "setting": "[4]; reproduction developmental, duration: 13 days, oral, gavage, F, New Zealand, mortality", "value": 240, "unit": "mg/kg-day"}]}
{"smiles": "CSCc1ccsc1", "note": "[3-(Methylthio)methylthiophene]", "values": [{"measurement": "NOAEL", "setting": "repeat dose other", "value": 0.29, "unit": "mg/kg-day"}, {"measurement": "NOAEL", "setting": "[10]; subchronic, duration: 90 days", "value": 0.29, "unit": "mg/kg-day"}]}
{"smiles": "CCO", "note": "[Ethanol]", "values": [{"measurement": "LC50", "setting": "[7]; duration: 24 hours", "value": 11.2, "unit": "mg/mL"}, {"measurement": "NOAEL", "setting": "[10]; subchronic, duration: 90 days, oral, gavage, organ weight", "value": 1730, "unit": "mg/kg-day"}]}
{"smiles": "CC/C=C\\CCCCC=O", "note": "[(Z)-Non-6-enal]", "values": [{"measurement": "LC50", "setting": "[6]", "value": 8, "unit": "mg/L"}, {"measurement": "LC50", "setting": "[2]", "value": 191, "unit": "mg/kg"}]}
{"smiles": "CCc1nc(C)cs1", "note": "[Thiazole, 2-ethyl-4-methyl-]", "values": [{"measurement": "LC50", "setting": "[2]", "value": 193, "unit": "mg/kg"}]}
{"smiles": "CC(C)C1C2CCC1c1c(NC(=O)c3cn(C)nc3C(F)F)cccc12", "note": "(stereo not drawn) [Isopyrazam]", "values": [{"measurement": "LC50", "setting": "[5]; acute, oral, diet, mortality", "value": 1310, "unit": "mg/kg-day"}, {"measurement": "LD50", "setting": "[5]; acute, oral, mortality", "value": "> 2000", "unit": "mg/kg-day"}, {"measurement": "NOEC", "setting": "[5]; reproduction developmental", "value": 32.5, "unit": "mg/kg-day"}, {"measurement": "LD50", "setting": "[10]; acute, oral, mortality", "value": 2000, "unit": "mg/kg-day"}, {"measurement": "NOEL", "setting": "[10]; chronic", "value": 41, "unit": "mg/kg-day"}, {"measurement": "LOAEL", "setting": "[10]; chronic, duration: 2 years, organ weight", "value": 5.5, "unit": "mg/kg-day"}, {"measurement": "NOAEL", "setting": "[10]; developmental, development", "value": 20, "unit": "mg/kg-day"}, {"measurement": "NOAEL", "setting": "[10]; reproduction developmental, duration: 2 years, body weight", "value": 8, "unit": "mg/kg-day"}]}
{"smiles": "[Ca+2].[I-].[I-].[O-2].[O-2].[O-2].[O-2].[O-2].[O-2]", "note": "[Iodic acid (HIO3), calcium salt (2:1)]", "values": [{"measurement": "LEL", "setting": "[11]; repeat dose other", "value": 5, "unit": "mg/kg-day"}, {"measurement": "LEL", "setting": "[11]; subchronic, duration: 35 days, oral, diet, M", "value": 5, "unit": "mg/kg-day"}, {"measurement": "LEL", "setting": "[12]; repeat dose other", "value": 8, "unit": "mg/kg-day"}, {"measurement": "LEL", "setting": "[12]; short-term", "value": 8, "unit": "mg/kg-day"}]}
{"smiles": "CN1CCCC1", "note": "[N-Methylpyrrolidine]", "values": [{"measurement": "NOAEL", "setting": "reproduction developmental", "value": 50, "unit": "mg/kg-day"}, {"measurement": "NOAEL", "setting": "[10]; chronic, duration: 2 years, oral, diet", "value": 50, "unit": "mg/kg-day"}, {"measurement": "NOAEL", "setting": "[10]; short-term, duration: 28 days, mortality", "value": 50, "unit": "mg/kg-day"}]}
{"smiles": "CCCC(CCC)C(=O)O", "note": "[Valproic acid]", "values": [{"measurement": "NOAEL", "setting": "repeat dose other, development", "value": 600, "unit": "mg/kg-day"}]}
